ChEMBL document CHEMBL3390848, “Affinity selection and sequence-activity relationships of HIV-1 membrane fusion inhibitors directed at the drug-resistant variants” (Medchemcomm, 2010)
Residues, ends and D or L forms follow the SMILES beside them.

Assays:
[1] = test system: Human immunodeficiency virus 1; assay: Thermal stability of HIV1 envelope glycoprotein gp41 His-tagged N-terminal heptad repeat N36 N43D mutant-drug complex assessed as thermal unfolding transition state by measuring molar ellipticity at 4 to 90 degC by circular dichroic spectra analysis
[2] = test system: Human immunodeficiency virus 1; assay: Binding affinity to HIV1 His-tagged N-terminal heptad repeat of envelope glycoprotein gp41 assessed as recovery of N36-drug complex after 2 hrs by LC-MS analysis; set-up: concentration or dose not given beside the values
[3] = test system: Human immunodeficiency virus 1; assay: Binding affinity to HIV1 His-tagged N-terminal heptad repeat of envelope glycoprotein gp41 assessed as recovery of N36-drug complex at 1 uM after 2 hrs by LC-MS analysis
[4] = test system: Human immunodeficiency virus 1; assay: Binding affinity to HIV1 His-tagged N-terminal heptad repeat of envelope glycoprotein gp41 assessed as recovery of N36-drug complex at 6 uM after 2 hrs by LC-MS analysis
[5] = test system: Human immunodeficiency virus 1; assay: Binding affinity to HIV1 His-tagged N-terminal heptad repeat of envelope glycoprotein gp41 assessed as recovery of N36-drug complex at 10 uM after 2 hrs by LC-MS analysis
[6] = test system: Human immunodeficiency virus 1; assay: Binding affinity to HIV1 His-tagged N-terminal heptad repeat of envelope glycoprotein gp41 assessed as recovery of N36 N43D mutant-drug complex after 2 hrs by LC-MS analysis; set-up: concentration or dose not given beside the values
[7] = test system: Human immunodeficiency virus 1; assay: Binding affinity to HIV1 His-tagged N-terminal heptad repeat of envelope glycoprotein gp41 assessed as recovery of N36-drug complex at 0.6 uM after 2 hrs by LC-MS analysis
[8] = test system: Human immunodeficiency virus 1; assay: Thermal stability of HIV1 envelope glycoprotein gp41 His-tagged N-terminal heptad repeat N36-drug complex assessed as thermal unfolding transition state by measuring molar ellipticity at 4 to 90 degC by circular dichroic spectra analysis
[9] = test system: Envelope glycoprotein gp160 (Human immunodeficiency virus 1), Q72502 [V38A]; assay: Binding affinity to HIV1 His-tagged N-terminal heptad repeat of envelope glycoprotein gp41 assessed as recovery of N36 V38A mutant-drug complex after 2 hrs by LC-MS analysis; set-up: concentration or dose not given beside the values
[10] = test system: Envelope glycoprotein gp160 (Human immunodeficiency virus 1), Q72502 [V38A]; assay: Thermal stability of HIV1 envelope glycoprotein gp41 His-tagged N-terminal heptad repeat N36 V38A mutant-drug complex assessed as thermal unfolding transition state by measuring molar ellipticity at 4 to 90 degC by circular dichroic spectra analysis
[11] = test system: Human immunodeficiency virus 1; assay: Antiviral activity against HIV1 NL4-3 harboring gp41 D36G mutant infected in human HeLa cells expressing CD4-LTR-beta-gal assessed as inhibition of viral replication after 48 hrs by MAGI assay; format: functional, organism-based

Structure (SMILES)	Tm [1] [°C]	Activity [2] [%]	Activity [3] [%]	Activity [4] [%]	Activity [5] [%]	Activity [6] [%]	Activity [7] [%]	Tm [8] [°C]	Activity [9] [%]	Tm [10] [°C]	EC50 [11] [nM]
CC[C@H](C)[C@H](NC(=O)[C@H](CC(C)C)NC(=O)[C@H](CCC(=O)O)NC(=O)[C@H](CCC(=O)O)NC(=O)[C@@H](NC(=O)[C@H](CCCCN)NC(=O)[C@H](CCCCN)NC(=O)[C@@H](NC(=O)[C@H](Cc1ccc(O)cc1)NC(=O)[C@H](CCC(=O)O)NC(=O)[C@H](CCC(=O)O)NC(=O)[C@@H](NC(=O)[C@H](CCCCN)NC(=O)[C@H](CCCCN)NC(=O)[C@H](CC(=O)O)NC(=O)[C@H](Cc1c[nH]c2ccccc12)NC(=O)[C@H](CCC(=O)O)NC(=O)[C@H](CCC(=O)O)NC(=O)[C@H](Cc1c[nH]c2ccccc12)NC(C)=O)[C@@H](C)CC)[C@@H](C)O)[C@@H](C)CC)C(=O)N[C@@H](CCCCN)C(=O)N[C@@H](CCCCN)C(=O)N[C@@H](CO)C(=O)N[C@@H](CCC(=O)O)C(=O)N[C@@H](CCC(=O)O)C(=O)N[C@@H](CCC(N)=O)C(=O)N[C@@H](CCC(N)=O)C(=O)N[C@@H](CCCCN)C(=O)N[C@@H](CCCCN)C(=O)N[C@@H](CC(N)=O)C(=O)N[C@@H](CCC(=O)O)C(=O)N[C@@H](CCC(=O)O)C(=O)N[C@@H](CCC(=O)O)C(=O)N[C@@H](CC(C)C)C(=O)N[C@@H](CCCCN)C(=O)N[C@@H](CCCCN)C(N)=O (Ac-WEEWDKKIEEYTKKIEELIKKSEEQQKKNEEELKK-NH2)	69.9	10.1	11.5	19.2	22.8	10.9	5.8	81.6	11.8	72.6	1
CC[C@H](C)[C@H](NC(=O)[C@H](CC(C)C)NC(=O)[C@H](CCC(=O)O)NC(=O)[C@H](CCC(=O)O)NC(=O)[C@@H](NC(=O)[C@H](CCCCN)NC(=O)[C@H](CCCCN)NC(=O)[C@@H](NC(=O)[C@H](Cc1ccc(O)cc1)NC(=O)[C@H](CCC(=O)O)NC(=O)[C@H](CCC(=O)O)NC(=O)[C@@H](NC(=O)[C@H](CCCCN)NC(=O)[C@H](CCCCN)NC(=O)[C@H](CC(=O)O)NC(=O)[C@H](Cc1c[nH]c2ccccc12)NC(=O)[C@H](CCC(=O)O)NC(=O)[C@H](CCC(=O)O)NC(=O)[C@H](Cc1c[nH]c2ccccc12)NC(C)=O)[C@@H](C)CC)[C@@H](C)O)[C@@H](C)CC)C(=O)N[C@@H](CCCCN)C(=O)N[C@@H](CCCCN)C(=O)N[C@@H](Cc1c[nH]c2ccccc12)C(=O)N[C@@H](CCC(=O)O)C(=O)N[C@@H](CCC(=O)O)C(=O)N[C@@H](CCC(N)=O)C(=O)N[C@@H](CCC(N)=O)C(=O)N[C@@H](CCCCN)C(=O)N[C@@H](CCCCN)C(=O)N[C@@H](CC(N)=O)C(=O)N[C@@H](CCC(=O)O)C(=O)N[C@@H](CCC(=O)O)C(=O)N[C@@H](CCC(=O)O)C(=O)N[C@@H](CC(C)C)C(=O)N[C@@H](CCCCN)C(=O)N[C@@H](CCCCN)C(N)=O (Ac-WEEWDKKIEEYTKKIEELIKKWEEQQKKNEEELKK-NH2)	66		0.9	0.3	0.5	2.4	6.2	66.4	1	64.6	3.1
